Several values for one entry are separate records, joined by “and”; a condition that tells them apart may be missing. Identical values can stand only once. Toxic doses and inconclusive results are not listed.
System: L1210 leukemia ip in BDF1 mice, survival T/C
Assay: NCI In Vivo Anticancer Drug Screen. Data for tumor model L1210 Leukemia (intraperitoneal) in B6D2F1 (BDF1) mice
Details: endpoint: mean survival time, higher = longer survival
Method in brief: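 In this screen, tumor-bearing mice given compound are compared to those given vehicle, and their survival values are reported as a treated-to-control quotient.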

[1] = dose: 100.0 mg/kg/injection, schedule: Q01DX009 (ip), vehicle: saline with Tween-80
[2] = dose: 200.0 mg/kg/injection, schedule: Q01DX009 (ip), vehicle: saline with Tween-80
[3] = dose: 400.0 mg/kg/injection, schedule: Q01DX009 (ip), vehicle: saline with Tween-80
[4] = dose: 12.5 mg/kg/injection, schedule: Q01DX009 (ip), vehicle: saline
[5] = dose: 25.0 mg/kg/injection, schedule: Q01DX009 (ip), vehicle: saline
[6] = dose: 50.0 mg/kg/injection, schedule: Q01DX009 (ip), vehicle: saline
[7] = dose: 100.0 mg/kg/injection, schedule: Q01DX009 (ip), vehicle: Klucel (hydroxypropylcellulose) (HPC)
[8] = dose: 200.0 mg/kg/injection, schedule: Q01DX009 (ip), vehicle: Klucel (hydroxypropylcellulose) (HPC)
[9] = dose: 400.0 mg/kg/injection, schedule: Q01DX009 (ip), vehicle: Klucel (hydroxypropylcellulose) (HPC)
[10] = dose: 100.0 mg/kg/injection, schedule: Q04DX003 (ip), vehicle: saline with Tween-80
[11] = dose: 200.0 mg/kg/injection, schedule: Q04DX003 (ip), vehicle: saline with Tween-80
[12] = dose: 400.0 mg/kg/injection, schedule: Q04DX003 (ip), vehicle: saline with Tween-80
[13] = dose: 100.0 mg/kg/injection, schedule: Q04DX003 (ip), vehicle: Klucel (hydroxypropylcellulose) (HPC)
[14] = dose: 200.0 mg/kg/injection, schedule: Q04DX003 (ip), vehicle: Klucel (hydroxypropylcellulose) (HPC)
[15] = dose: 400.0 mg/kg/injection, schedule: Q04DX003 (ip), vehicle: Klucel (hydroxypropylcellulose) (HPC)

`CC(C)(C)OC(=O)N1CCCC1C(=O)Oc1ccc([N+](=O)[O-])cc1` (stereo not given) was tested, and the T/C (dose: 25.0 mg/kg/injection, schedule: Q01DX009 (ip), vehicle: saline with Tween-80) was 102 % of control, the T/C (dose: 50.0 mg/kg/injection, schedule: Q01DX009 (ip), vehicle: saline with Tween-80) was 88 % of control and the T/C [1] was 93 % of control.

With `O=C(NCCCCN1CC1)C(=O)NCCCCN1CC1` the T/C (dose: 1.5 mg/kg/injection, schedule: Q04DX003 (ip), vehicle: Klucel (hydroxypropylcellulose) (HPC)) was 108 % of control, the T/C (dose: 3.0 mg/kg/injection, schedule: Q04DX003 (ip), vehicle: Klucel (hydroxypropylcellulose) (HPC)) was 118 % of control and the T/C (dose: 8.0 mg/kg/injection, schedule: Q04DX003 (ip), vehicle: Klucel (hydroxypropylcellulose) (HPC)) was 155 % of control. The T/C (dose: 18.0 mg/kg/injection, schedule: Q04DX003 (ip), vehicle: Klucel (hydroxypropylcellulose) (HPC)) was 177 % of control.

For `CCOC(=O)c1nnc(SC)nc1SC`, the T/C (dose: 75.0 mg/kg/injection, schedule: Q01DX001 (ip), vehicle: alcohol) was 100 % of control and the T/C (dose: 150.0 mg/kg/injection, schedule: Q01DX001 (ip), vehicle: alcohol) was 108 % of control.

`C=CCNC(=O)Oc1cccc(NC(=O)CC)c1` was tested, and the T/C [1] was 94 % of control, the T/C [2] was 91 % of control and the T/C [3] was 87 % of control.

In the case of `CN(C)CCCCc1cn(-c2ccccc2)c2ccccc12`, the T/C [4] is reported as 100 % of control, the T/C [5] is reported as 93 % of control and the T/C (dose: 25.0 mg/kg/injection, schedule: Q04DX003 (ip), vehicle: saline) is reported as 102 % of control. The T/C (dose: 30.0 mg/kg/injection, schedule: Q01DX015 (ip), vehicle: saline) was 86 % of control, the T/C [6] was 107 % of control and the T/C (dose: 50.0 mg/kg/injection, schedule: Q04DX003 (ip), vehicle: saline) was 103 % of control.

For `CC(C)CC(N=C(NC(CC(C)C)C(=O)O)c1ccccc1)C(=O)O` (stereo not given), the T/C [7] was 108 % of control, the T/C [8] was 105 % of control and the T/C [9] was 95 % of control.

With `COc1ccc(N(C)C(C)=S)cc1` the T/C (dose: 100.0 mg/kg/injection, schedule: Q04DX003 (ip), vehicle: gum acacia) was 96 % of control and the T/C (dose: 200.0 mg/kg/injection, schedule: Q04DX003 (ip), vehicle: gum acacia) was 103 % of control.

For `O=C(Nc1ccccc1)c1cc(Cl)ccn1`, the T/C (dose: 100.0 mg/kg/injection, schedule: Q01DX001 (ip), vehicle: carboxymethylcellulose (CMC)) was 100 % of control, the T/C (dose: 200.0 mg/kg/injection, schedule: Q01DX001 (ip), vehicle: carboxymethylcellulose (CMC)) was 97 % of control and the T/C (dose: 400.0 mg/kg/injection, schedule: Q01DX001 (ip), vehicle: carboxymethylcellulose (CMC)) was 97 % of control.

With `CCCS(=O)(=O)N1CCC(C)CC1` the T/C (dose: 100.0 mg/kg/injection, schedule: Q04DX002 (ip), vehicle: Klucel (hydroxypropylcellulose) (HPC)) was 102 % of control, the T/C (dose: 200.0 mg/kg/injection, schedule: Q04DX002 (ip), vehicle: Klucel (hydroxypropylcellulose) (HPC)) was 97 % of control and the T/C (dose: 400.0 mg/kg/injection, schedule: Q04DX002 (ip), vehicle: Klucel (hydroxypropylcellulose) (HPC)) was 97 % of control.

`CC(=O)COc1cccc([N+](=O)[O-])c1` was tested, and the T/C [7] was 92 % of control, the T/C [8] was 90 % of control and the T/C [9] was 90 % of control.

For `O=C1CCCN(Cc2ccccc2)C(=O)N1`, the T/C [1] was 97 % of control, the T/C [10] was 103 % of control and the T/C [2] was 97 % of control. The T/C [11] was 103 % of control, the T/C [3] was 97 % of control and the T/C [12] was 103 % of control.

`CCCCCCCCc1ccc(NNC(N)=S)cc1` was tested, and the T/C (dose: 3.12 mg/kg/injection, schedule: Q01DX009 (ip), vehicle: saline) was 93 % of control, the T/C (dose: 6.25 mg/kg/injection, schedule: Q01DX009 (ip), vehicle: saline) was 101 % of control and 92 % of control and the T/C [4] was 103 % of control. For the same molecule, the T/C [5] was 100 % of control.

In the case of `c1ncc(OCCN2CC2)nc1OCCN1CC1`, the T/C (dose: 0.12 mg/kg/injection, schedule: Q01DX009 (ip), vehicle: carboxymethylcellulose (CMC)) is reported as 102 % of control, the T/C (dose: 0.25 mg/kg/injection, schedule: Q01DX009 (ip), vehicle: carboxymethylcellulose (CMC)) is reported as 108 % of control and the T/C (dose: 0.5 mg/kg/injection, schedule: Q01DX009 (ip), vehicle: carboxymethylcellulose (CMC)) is reported as 102 % of control. The T/C (dose: 0.5 mg/kg/injection, schedule: Q01DX009 (ip), vehicle: saline) was 97 % of control, the T/C (dose: 1.0 mg/kg/injection, schedule: Q01DX009 (ip), vehicle: carboxymethylcellulose (CMC)) was 95 % of control and the T/C (dose: 1.0 mg/kg/injection, schedule: Q01DX009 (ip), vehicle: saline) was 97 % of control. For the same molecule, the T/C (dose: 3.0 mg/kg/injection, schedule: Q01DX009 (ip), vehicle: saline) was 156 % of control, the T/C (dose: 11.1 mg/kg/injection, schedule: Q01DX001 (ip), vehicle: carboxymethylcellulose (CMC)) was 124 % of control and the T/C (dose: 11.1 mg/kg/injection, schedule: Q01DX001 (ip), vehicle: saline) was 120 % of control.

With `O=S(=O)(OCC1CO1)c1ccc(F)cc1` (stereo not given) the T/C (dose: 100.0 mg/kg/injection, schedule: Q01DX007 (ip), vehicle: Klucel (hydroxypropylcellulose) (HPC)) was 103 % of control, the T/C [13] was 95 % of control and the T/C (dose: 200.0 mg/kg/injection, schedule: Q01DX007 (ip), vehicle: Klucel (hydroxypropylcellulose) (HPC)) was 114 % of control. The T/C [14] was 104 % of control, the T/C (dose: 400.0 mg/kg/injection, schedule: Q01DX007 (ip), vehicle: Klucel (hydroxypropylcellulose) (HPC)) was 103 % of control and the T/C [15] was 98 % of control.

In the case of `Cc1ccc(S(=O)(=O)N2CC3CC2CN3Cc2ccccc2)cc1` (stereo not given), the T/C [7] is reported as 97 % of control, the T/C [13] is reported as 98 % of control and the T/C [8] is reported as 97 % of control. The T/C [14] was 101 % of control, the T/C [9] was 92 % of control and the T/C [15] was 106 % of control.

For `COC(C(OC)N1CCOCC1)N1CCOCC1` (stereo not given), the T/C [6] was 102 % of control, the T/C [1] was 95 % of control and the T/C (dose: 100.0 mg/kg/injection, schedule: Q01DX009 (ip), vehicle: saline) was 110 % of control. The T/C [10] was 93 % of control, the T/C (dose: 132.0 mg/kg/injection, schedule: Q01DX009 (ip), vehicle: saline with Tween-80) was 90 % of control and the T/C [2] was 101 % of control and 97 % of control. For the same molecule, the T/C [11] was 98 % of control, the T/C (dose: 300.0 mg/kg/injection, schedule: Q01DX009 (ip), vehicle: saline with Tween-80) was 99 % of control and the T/C [3] was 89 % of control. For the same molecule, the T/C [12] was 94 % of control.

With `Cc1c(C#N)sc2ccccc12` the T/C (dose: 100.0 mg/kg/injection, schedule: Q01DX001 (ip), vehicle: saline) was 96 % of control, the T/C (dose: 200.0 mg/kg/injection, schedule: Q01DX001 (ip), vehicle: saline) was 96 % of control and the T/C (dose: 400.0 mg/kg/injection, schedule: Q01DX001 (ip), vehicle: saline) was 96 % of control.

In the case of `COc1cc(OC)c(Cl)c(OC)c1`, the T/C (dose: 100.0 mg/kg/injection, schedule: Q01DX009 (ip), vehicle: other) is reported as 120 % of control, the T/C (dose: 100.0 mg/kg/injection, schedule: Q04DX003 (ip), vehicle: saline) is reported as 101 % of control and the T/C (dose: 200.0 mg/kg/injection, schedule: Q01DX009 (ip), vehicle: other) is reported as 103 % of control. The T/C (dose: 200.0 mg/kg/injection, schedule: Q04DX003 (ip), vehicle: saline) was 100 % of control, the T/C (dose: 400.0 mg/kg/injection, schedule: Q01DX009 (ip), vehicle: other) was 108 % of control and the T/C (dose: 400.0 mg/kg/injection, schedule: Q04DX003 (ip), vehicle: saline) was 101 % of control.

`C=C1C(=O)C2(C)OC2(C)C1C(=O)O` (stereo not given) was tested, and the T/C (dose: 1.25 mg/kg/injection, schedule: Q01DX009 (ip), vehicle: Klucel (hydroxypropylcellulose) (HPC)) was 94 % of control, the T/C (dose: 2.5 mg/kg/injection, schedule: Q01DX009 (ip), vehicle: Klucel (hydroxypropylcellulose) (HPC)) was 100 % of control and the T/C (dose: 5.0 mg/kg/injection, schedule: Q01DX009 (ip), vehicle: Klucel (hydroxypropylcellulose) (HPC)) was 105 % of control. For the same molecule, the T/C (dose: 10.0 mg/kg/injection, schedule: Q01DX009 (ip), vehicle: Klucel (hydroxypropylcellulose) (HPC)) was 101 % of control.

In the case of `CCCCCCCCCCCCCCCCCC[N+](C)=C1SCCS1`, the T/C (dose: 1.56 mg/kg/injection, schedule: Q01DX009 (ip), vehicle: Klucel (hydroxypropylcellulose) (HPC)) is reported as 94 % of control, the T/C (dose: 3.13 mg/kg/injection, schedule: Q01DX009 (ip), vehicle: Klucel (hydroxypropylcellulose) (HPC)) is reported as 105 % of control and the T/C (dose: 6.25 mg/kg/injection, schedule: Q01DX009 (ip), vehicle: Klucel (hydroxypropylcellulose) (HPC)) is reported as 105 % of control.

For `C=C1C(=O)OC2CC3(C)OC3C3OC3C3=CC(OC3=O)C12` (stereo not given), the T/C (dose: 5.0 mg/kg/injection, schedule: Q01DX001 (ip), vehicle: carboxymethylcellulose (CMC)) was 112 % of control.

— PubChem BioAssay AID248 (DTP/NCI, 2004)
